Reference: patent US8445509B2, “Fused heterocyclic derivatives and use thereof” (Takeda Pharmaceutical Company Limited, priority 2008, dated 2013)

Tested on: Human blood cell cancer cell line MV-4-11
Assay: Human blood cell cancer cell line MV-4-11 growth inhibitory test
Type: cell-based
Conditions: MV4-11, 72 h, culture for 3 days; for inhibition at 1 µM: 1 μM test substance, read-out: inhibitory rate (%) at 1 μM
Experimental: Human blood cell cancer cell line MV-4-11 (ATCC) was cultured in IMDM (Invitrogen) containing 10% bovine fetal serum in an incubator at 37° C., 5% CO2. MV-4-11 cells were treated with trypsin/EDTA and recovered. The cells were suspended in IMDM containing 10% bovine fetal serum, plated on a 96 well flat bottom plate at a cells density of 30,000 cells/50 μL per well. After culturing overnight, various concentrations of test substance were dissolved in IMDM containing 10% bovine fetal serum and added to each well by 50 μL. After culture for 3 days, a Cell counting kit-8 reagent (DOJINDO LABORATORIES) was added to each well by 10 μL, and reacted in an incubator at 37° C., 5% CO2 for 2-3 hr. After the reaction, the absorbance of each well at 450 nm was measured by a microtiter plate reader. The concentration of a test substance necessary for inhibiting the growth by 50% (IC50 value) was calculated using a cell proliferation rate with addition of the test substance at each concentration and according to the nonlinear regression analysis using GraphPad Prism [Sigmoidal dose response (variable slope)].

Row | IC50 [nM] | Compound | inhibition at 1 µM [%]
1 | ≤ 1000 | Cc1ccc(C(=O)Nc2ccc(Oc3ccc4nc(NC(=O)C5CC5)cn4c3)cn2)c(=O)n1-c1ccc(F)cc1 [Example 60, N-[5-({2-[(cyclopropylcarbonyl)amino]imidazo[1,2-a]pyridin-6-yl}oxy)pyridin-2-yl]-1-(4-fluorophenyl)-6-methyl-2-oxo-1,2-dihydropyridine-3-carboxamide] | ≥ 90
2 | ≤ 1000 | O=C(Nc1cn2cc(Oc3ccc(NC(=O)N4CCN(c5ccc(F)cc5)C4=O)cc3F)ccc2n1)C1CC1 [Example 53, N-[4-({2-[(cyclopropylcarbonyl)amino]imidazo[1,2-a]pyridin-6-yl}oxy)-3-sfluorophenyl]-3-(4-fluorophenyl)-2-oxoimidazolidine-1-carboxamide] | ≥ 90
3 | ≤ 1000 | O=C(Nc1cn2cc(Oc3ccc(NC(=O)C4(C(=O)Nc5ccc(F)cc5)CC4)cc3F)ccc2n1)C1CC1 [Example 11, N-[4-({2-[(cyclopropylcarbonyl)amino]imidazo[1,2-a]pyridin-6-yl}oxy)-3-fluorophenyl]-N′-(4-fluorophenyl)cyclopropane-1,1-dicarboxamide] | ≥ 90
4 | ≤ 1000 | Cc1ccc(C(=O)Nc2ccc(Oc3ccc4nc(NC(=O)C5CC5)cn4c3)cn2)[n+]([O-])c1-c1ccc(F)cc1 [Example 61, N-[5-({2-[(cyclopropylcarbonyl)amino]imidazo[1,2-a]pyridin-6-yl}oxy)pyridin-2-yl]-6-(4-fluorophenyl)-5-methylpyridine-2-carboxamide 1-oxide] | ≥ 90
5 | ≤ 1000 | O=C(Nc1cn2cc(Oc3ccc(NC(=O)C4(C(=O)Nc5ccccc5)CC4)cc3F)ccc2n1)C1CC1 [Example 14, N-[4-({2-[(cyclopropylcarbonyl)amino]imidazo[1,2-a]pyridin-6-yl}oxy)-3-fluorophenyl]-N′-phenylcyclopropane-1,1-dicarboxamide] | ≥ 90
6 | ≤ 1000 | Cc1ccc(C(=O)Nc2ccc(Oc3ccn4nc(NC(=O)C5CC5)nc4c3)c(F)c2)c(=O)n1-c1ccc(F)cc1 [Example 76, N-[4-({2-[(cyclopropylcarbonyl)amino][1,2,4]triazolo[1,5-a]pyridine-7-yl}oxy)-3-fluorophenyl]-1-(4-fluorophenyl)-6-methyl-2-oxo-1,2-dihydropyridine-3-carboxamide] | ≥ 90
7 | ≤ 1000 | Cc1cc(C(=O)Nc2ccc(Oc3ccc4nc(NC(=O)C5CC5)cn4c3)c(F)c2)c(=O)n(-c2ccc(F)cc2)c1C [Example 70, N-[4-({2-[(cyclopropylcarbonyl)amino]imidazo[1,2-a]pyridin-6-yl}oxy)-3-fluorophenyl]-1-(4-fluorophenyl)-5,6-dimethyl-2-oxo-1,2-dihydropyridine-3-carboxamide] | ≥ 90
8 | ≤ 1000 | Cc1ccc(C(=O)Nc2ccc(Oc3ccc4nc(NC(=O)C5CC5)cn4c3)c(F)c2)c(=O)n1-c1cccc(F)c1 [Example 75, N-[4-({2-[(cyclopropylcarbonyl)amino]imidazo[1,2-a]pyridin-6-yl}oxy)-3-fluorophenyl]-1-(3-fluorophenyl)-6-methyl-2-oxo-1,2-dihydropyridine-3-carboxamide] | ≥ 90
9 | ≤ 1000 | O=C(Nc1nc2ccc(Oc3ccc(NC(=O)C4(C(=O)Nc5ccccc5)CC4)cc3F)cc2s1)C1CC1 [Example 18, N-[4-({2-[(cyclopropylcarbonyl)amino]-1,3-benzothiazol-6-yl}oxy)-3-fluorophenyl]-N′-phenylcyclopropane-1,1-dicarboxamide] | ≥ 90
10 | ≤ 1000 | CC1CCN(C(=O)Nc2ccc(Oc3ccc4nc(NC(=O)C5CC5)cn4c3)c(F)c2)C(=O)N1c1ccc(F)cc1 (stereo not shown) [Example 80, N-[4-({2-[(cyclopropylcarbonyl)amino]imidazo[1,2-a]pyridin-6-yl}oxy)-3-fluorophenyl]-3-(4-fluorophenyl)-4-methyl-2-oxotetrahydropyrimidine-1(2H)-carboxamide] | ≥ 90
11 | ≤ 1000 | Cc1ccc(C(=O)Nc2ccc(Oc3ccc4nc(NC(=O)C5CC5)cn4c3)c(Cl)c2)c(=O)n1-c1ccc(F)cc1 [Example 57, N-[3-chloro-4-({2-[(cyclopropylcarbonyl)amino]imidazo[1,2-a]pyridin-6-yl}oxy)phenyl]-1-(4-fluorophenyl)-6-methyl-2-oxo-1,2-dihydropyridine-3-carboxamide] | ≥ 90
12 | ≤ 1000 | CC1=C(c2ccc(F)cc2)C(=O)N(C(=O)Nc2ccc(Oc3ccc4nc(NC(=O)C5CC5)cn4c3)c(F)c2)CC1 [Example 81, N-[4-({2-[(cyclopropylcarbonyl)amino]imidazo[1,2-a]pyridin-6-yl}oxy)-3-fluorophenyl]-5-(4-fluorophenyl)-4-methyl-6-oxo-3,6-dihydropyridine-1(2H)-carboxamide] | ≥ 90
13 | ≤ 1000 | Cc1ccc(C(=O)Nc2ccc(Oc3ccc4nc(NC(=O)C5CC5)cn4c3)cc2)[n+]([O-])c1-c1ccc(F)cc1 [Example 72, N-[4-({2-[(cyclopropylcarbonyl)amino]imidazo[1,2-a]pyridin-6-yl}oxy)phenyl]-6-(4-fluorophenyl)-5-methylpyridine-2-carboxamide 1-oxide] | ≥ 90
14 | ≤ 1000 | Cc1ccc(C(=O)Nc2ccc(Oc3ccc4nc(NC(=O)C5CC5)cn4c3)c(F)c2)c(=O)n1-c1ccc(F)c(F)c1 [Example 45, N-[4-({2-[(cyclopropylcarbonyl)amino]imidazo[1,2-a]pyridin-6-yl}oxy)-3-fluorophenyl]-1-(3,4-difluorophenyl)-6-methyl-2-oxo-1,2-dihydropyridine-3-carboxamide] | ≥ 90
15 | ≤ 1000 | Cc1ccc(C(=O)Nc2ccc(Oc3ccc4nc(NC(=O)C5CC5)cn4c3)cc2)c(=O)n1-c1ccc(F)cc1 [Example 28, N-[4-({2-[(cyclopropylcarbonyl)amino]imidazo[1,2-a]pyridin-6-yl}oxy)phenyl]-1-(4-fluorophenyl)-6-methyl-2-oxo-1,2-dihydropyridine-3-carboxamide] | ≥ 90
16 | ≤ 1000 | Cc1ccc(C(=O)Nc2ccc(Oc3ccc4nc(NC(=O)C5CC5)cn4c3)c(F)c2)[n+]([O-])c1-c1cccc(F)c1 [Example 93, N-[4-({2-[(cyclopropylcarbonyl)amino]imidazo[1,2-a]pyridin-6-yl}oxy)-3-fluorophenyl]-6-(3-fluorophenyl)-5-methylpyridine-2-carboxamide 1-oxide] | ≥ 90
17 | ≤ 1000 | Cc1c(C(=O)Nc2ccc(Oc3ccc4nc(NC(=O)C5CC5)cn4c3)c(F)c2)c(=O)n(-c2ccc(F)cc2)n1C [Example 77, N-[4-({2-[(cyclopropylcarbonyl)amino]imidazo[1,2-a]pyridin-6-yl}oxy)-3-fluorophenyl]-2-(4-fluorophenyl)-1,5-dimethyl-3-oxo-2,3-dihydro-1H-pyrazole-4-carboxamide] | ≥ 90
18 | ≤ 1000 | Cc1cc(C)n(-c2ccc(F)cc2)c(=O)c1C(=O)Nc1ccc(Oc2ccc3nc(NC(=O)C4CC4)cn3c2)c(F)c1 [Example 82, N-[4-({2-[(cyclopropylcarbonyl)amino]imidazo[1,2-a]pyridin-6-yl}oxy)-3-fluorophenyl]-1-(4-fluorophenyl)-4,6-dimethyl-2-oxo-1,2-dihydropyridine-3-carboxamide] | ≥ 90
19 | ≤ 1000 | Cc1ccc(C(=O)Nc2ccc(Oc3ccc4nc(NC(=O)C5CC5)cn4c3)c(F)c2)[n+]([O-])c1-c1ccc(F)cc1 [Example 29, N-[4-({2-[(cyclopropylcarbonyl)amino]imidazo[1,2-a]pyridin-6-yl}oxy)-3-fluorophenyl]-6-(4-fluorophenyl)-5-methylpyridine-2-carboxamide 1-oxide] | ≥ 90
20 | ≤ 1000 | Cc1ccc(C(=O)Nc2ccc(Oc3ccc4nc(NC(=O)C5CC5)cn4c3)cc2F)[n+]([O-])c1-c1ccc(F)cc1 [Example 84, N-[4-({2-[(cyclopropylcarbonyl)amino]imidazo[1,2-a]pyridin-6-yl}oxy)-2-fluorophenyl]-6-(4-fluorophenyl)-5-methylpyridine-2-carboxamide 1-oxide] | ≥ 90
21 | ≤ 1000 | O=C(Nc1ccc(Oc2ccc3nc(NC(=O)C4CC4)cn3c2)c(F)c1)c1cccn(-c2ccc(F)cc2)c1=O [Example 10, N-[4-({2-[(cyclopropylcarbonyl)amino]imidazo[1,2-a]pyridin-6-yl}oxy)-3-fluorophenyl]-1-(4-fluorophenyl)-2-oxo-1,2-dihydropyridine-3-carboxamide] | ≥ 90
22 | ≤ 1000 | Cc1c(C(=O)Nc2ccc(Oc3ccc4nc(NC(=O)C5CC5)cn4c3)c(F)c2)c(=O)n(-c2ccccc2)n1C [Example 46, N-[4-({2-[(cyclopropylcarbonyl)amino]imidazo[1,2-a]pyridin-6-yl}oxy)-3-fluorophenyl]-1,5-dimethyl-3-oxo-2-phenyl-2,3-dihydro-1H-pyrazole-4-carboxamide] | ≥ 90
23 | ≤ 1000 | Cc1cc(C(=O)Nc2ccc(Oc3ccc4nc(NC(=O)C5CC5)cn4c3)c(F)c2)c(=O)n(-c2ccc(F)cc2)c1 [Example 66, N-[4-({2-[(cyclopropylcarbonyl)amino]imidazo[1,2-a]pyridin-6-yl}oxy)-3-fluorophenyl]-1-(4-fluorophenyl)-5-methyl-2-oxo-1,2-dihydropyridine-3-carboxamide] | ≥ 90
